Values joined by “and” are separate entries in the source; they are usually repeats but may differ in a detail not shown here. Equal values may be shown once.
Tests used:
Daphnia magna = assay: Chronic reproduction toxicity test (OECD 211) with passive dosing; type: in vivo; details: for EC10: 21-day reproduction inhibition; for % inhibition, avr.: average of vessels; for % inhibition (of reproduction, per vessel): relative to controls; for wet weight of parent daphnids, change relative to control: end of 21-d exposure
Method: (§1) Chronic toxicity tests with D. magna were performed according to the OECD guideline 211^2 using the passive dosing method. Two days before the tests, the exposure solution was predosed by shaking 10 PDMS disks loaded with the test substance in 1 L of medium for 48 h. Each test vessel (250 mL) was first flushed with the dosed solution to equilibrate the vessel walls, then filled with 100 mL of test solution, one PDMS disk, and one juvenile D. magna (<24 h old). The tests were conducted in loosely closed bottles to allow for adequate gas exchange and limit evaporation. The exposure medium was changed three times per week, and the animals were fed D. subspicatus daily (0.2 mg C/Daphnia/day). The number of offspring per adult and behavioral or physiological effects (e.g., size, movement, unhatched eggs) were recorded daily (except weekends). Dissolved oxygen, pH and temperature were also measured each week.
(§2) Tests were performed under static conditions (20 °C, 16:8 h light/dark cycle, 1 klux). Each compound was tested in 10 replicates for controls and limit tests (a single high concentration exposure to screen for significant toxic effects) and with 6 or 10 replicates for concentration–response tests. Reuse of silicone disks was included in some experiments (Table S3). Reproductive inhibition was assessed by counting offspring over 21 days. The number of offspring per mother in treatment groups was compared to controls, and the percent inhibition per replicate was used to generate concentration–response curves. A minimum of five concentrations per compound were tested to determine EC10, EC20, and EC50 values. For each test, three sets of polymers were rotated between loading, dosing, and exposure stages (Figure S2). Initial (before animal and food addition) and final (after 2–3 days of exposure, just before the medium change) water concentrations (CW) were monitored, with the latter collected after centrifugation to remove biomass (e.g., algae, carapaces, or feces).
(§3) All data are presented as average ± standard deviation. Student’s t test was used to analyze significance (p-value >0.05 considered insignificant). Concentration–response curve parameters (effective concentrations and confidence limits) and plots were generated using GraphPad Prism software (V6.01, GraphPad Software, La Jolla, CA, USA). The exposure concentrations were log10 transformed before fitting. Then a four parameters logistic model with variable slope was used to obtain EC10, EC20 and EC50 (see section S5 in SI file for details). Effective chemical activities (EA50) for chronic toxicity were calculated as follows: [drawing 1] 1 […]
(§4) S5. Concentration-response curve (CRC) fitting procedure
(§5) GraphPad Prism version 9.5.1 was used to fit CRC and obtain EC10, EC20, EC50 values and their confidence intervals. The exposure concentrations were log10 transformed before fitting. Then a four parameters logistic model with variable slope was used that describes the response as a function of following four parameters: minimum response (the Bottom), maximum response (the Top), the concentration required to cause a response half-way between the minimum and maximum (the EC50) and the slope of the curve […]
(§6) concentration. The Top was constrained to 100, the Bottom was constrained to 0, the HillSlope was not […]
(§7) !"# %& = !"# %&* − , × !"# 3 * 4
(§8) (, + ,((!"# %&'(<=)×-.!!/!"01)
(§9) Figure S7 Concentration-response curves of four NSO-PAHs based on reproductive inhibition during 21-day chronic toxicity tests with D. magna.
(§10) (1 picture or pasted object on this page, not shown here)

[1] = as above; type: in vivo, Daphnia magna; details: Daphnia magna, in vivo, other: waterborne exposure by passive dosing from PDMS disks, 21-day test, read-out: % offspring mortality of total offspring
Method: as §1, §2, §3, §4, §5, §6, §7, §8, §9, §10

[2] = Test 5-BCRB, avr. medium concentration 68.16 µg/L, 21 days
[3] = Test 5-BCRB, avr. medium concentration 68.16 µg/L, 21 days, one value per vessel

With c1ccc2c(c1)ccc1[nH]c3ccccc3c12 [BCRB, 7H-benzo[c]carbazole] the EC10 (Daphnia magna; 97.5-2.5% confidence interval in brackets) was 15.0 (8.6-24.3) μg L^-1, the EC10 (Daphnia magna; confidence interval in brackets) was 69.2 (39.7-111.8) nmol L^-1 and the “growth of parent D. magna (wet weight)” value (Daphnia magna; 21-day test, p-value <0.05) was “significantly inhibited D. magna growth”. The “LOEC (lowest observed effect concentration, reproduction inhibition)” value (Daphnia magna; 21 days, p-value <0.05 vs controls) was 9.8 μg L^–1, the “%offspring mortality” value (Daphnia magna; BCRB 3.99 µg/L, 21 days) was 3.29% and the “% inhibition, avr.” value (Daphnia magna; BCRB 3.99 µg/L, 21 days) was 0.7%. For the same compound, the “#average live offspring” value (Daphnia magna; BCRB 3.99 µg/L, 21 days, per mother) was 83, the “#total live offspring” value (Daphnia magna; BCRB 3.99 µg/L, 21 days, sum of all vessels) was 499 and the “%offspring mortality” value (Daphnia magna; BCRB 9.55 µg/L, 21 days) was 4.04%. For the same compound, the “% inhibition, avr.” value (Daphnia magna; BCRB 9.55 µg/L, 21 days) was 15.0%, the “#average live offspring” value (Daphnia magna; BCRB 9.55 µg/L, 21 days, per mother) was 71 and the “% inhibition (of reproduction, per vessel)” value (Daphnia magna; BCRB 9.55 µg/L, 21 days, single vessels 1-6) was 6.9%. The “#total live offspring” value (Daphnia magna; BCRB 9.55 µg/L, 21 days, sum of all vessels) was 427, the “%offspring mortality” value (Daphnia magna; BCRB 21.94 µg/L, 21 days) was 2.91% and the “% inhibition, avr.” value (Daphnia magna; BCRB 21.94 µg/L, 21 days) was 20.4%. The “#average live offspring” value (Daphnia magna; BCRB 21.94 µg/L, 21 days, per mother) was 67, the “#total live offspring” value (Daphnia magna; BCRB 21.94 µg/L, 21 days, sum of all vessels) was 400 and the “%offspring mortality” value (Daphnia magna; BCRB 43.46 µg/L, 21 days) was 5.62%. The “% inhibition, avr.” value (Daphnia magna; BCRB 43.46 µg/L, 21 days) was 39.8%, the “#average live offspring” value (Daphnia magna; BCRB 43.46 µg/L, 21 days, per mother) was 50 and the “% inhibition (of reproduction, per vessel)” value (Daphnia magna; BCRB 43.46 µg/L, 21 days, single vessels 2-6) was 39.1% and 54.6% and 28.4% and 37.9%. The “#total live offspring” value (Daphnia magna; BCRB 43.46 µg/L, 21 days, sum of all vessels) was 252, the “Survival of the mother animal” value (Daphnia magna; BCRB 43.46 µg/L, vessel 1, day 5) was “dead” and the “Total #offspring per mother (live, per vessel)” value (Daphnia magna; BCRB avr. medium concentration 3.99 µg/L (methanol for dosing 0.063 g/L), 21 days, single vessels 1-6) was 104 and 86 and 87 and 79 and 68 and 75. The “Total #offspring per mother (live, per vessel)” value (Daphnia magna; BCRB avr. medium concentration 9.55 µg/L (methanol for dosing 0.125 g/L), 21 days, single vessels 1-6) was 68 and 63 and 78 and 79 and 61, the “Total #offspring per mother (live, per vessel)” value (Daphnia magna; BCRB avr. medium concentration 21.94 µg/L (methanol for dosing 0.25 g/L), 21 days, single vessels 1-6) was 67 and 73 and 77 and 64 and 63 and 56 and the “Total #offspring per mother (live, per vessel)” value (Daphnia magna; BCRB avr. medium concentration 43.46 µg/L (methanol for dosing 0.5 g/L), 21 days, single vessels 2-6) was 51 and 38 and 60 and 52. For the same compound, the “EA50 (effective chemical activity)” value (Daphnia magna; EC50/subcooled liquid solubility, eq 1) was 0.004 unitless, the “%offspring mortality” value (Daphnia magna; [2]) was 32.43% and the “#total live offspring” value (Daphnia magna; Test 5-BCRB, avr. medium concentration 68.16 µg/L, 21 days, all vessels) was 75. The “% inhibition, avr.” value (Daphnia magna; [2]) was 82.1%, the “% inhibition (of reproduction, per replicate vessel)” value (Daphnia magna; [3]) was 82.1% and 86.9% and 83.3% and 74.9% and the “Total #dead offspring per mother (per replicate vessel)” value (Daphnia magna; [3]) was 9 and 2 and 8. For the same compound, the “#average live offspring” value (Daphnia magna; Test 5-BCRB, avr. medium concentration 68.16 µg/L, 21 days, per surviving mother) was 15, the “Total #offspring per mother (per replicate vessel)” value (Daphnia magna; Test 5-BCRB, avr. medium concentration 68.16 µg/L, methanol dosing conc. 1 g/L, 21 days, one value per vessel) was 15 and 11 and 14 and 21 and the “Mother survival (parent mortality)” value (Daphnia magna; Test 5-BCRB, avr. medium concentration 68.16 µg/L, vessel 3, day 5) was “dead”. For the same compound, the “CTLBB (critical target lipid body burden)” value (Daphnia magna; derived from chronic EC10 using eq 3) was 12.6 μmol g^-1 octanol, the “wet weight of parent daphnids, change relative to control” value (from here on “wet weight … change relative to control”) (Daphnia magna; 4.1 µg/L (Fig. S9)) was “+17%” and the “wet weight … change relative to control” value (Daphnia magna; 9.8 µg/L (Fig. S9)) was -14%. For the same compound, the “wet weight … change relative to control” value (Daphnia magna; 21.8 µg/L (Fig. S9)) was -15%, the “wet weight … change relative to control” value (Daphnia magna; 44.6 µg/L (Fig. S9)) was -34% and the “wet weight … change relative to control” value (Daphnia magna; 68.2 µg/L (Fig. S9)) was -77%. For the same compound, the swimming behavior (Daphnia magna; two highest exposure concentrations, 22 and 68 μg L^–1) was “induced locomotor changes”, the mortality at 21 days, 4.1 µg/L ([1]; 4.1 µg/L (Fig. S8)) was 3.3% and the mortality at 21 days, 9.8 µg/L ([1]; 9.8 µg/L (Fig. S8)) was 4%. The mortality at 21 days, 21.8 µg/L ([1]; 21.8 µg/L (Fig. S8)) was 2.9%, the mortality at 21 days, 44.6 µg/L ([1]; 44.6 µg/L (Fig. S8)) was 5.6% and the mortality at 21 days, 68.2 µg/L ([1]; 68.2 µg/L (Fig. S8)) was 32.4%.

— article PMC12080252, “Daphnia magna as an Alternative Model for (Simultaneous) Bioaccumulation and Chronic Toxicity Assessment—Controlled Exposure Study Indicates High Hazard of Heterocyclic PAHs” (Environmental Science & Technology, 2025)
